Laboratory results reported in patent US8440180B2, “Anti-cancer composition comprising aquatic microbial extract” (Ajou University Industry-Academic Cooperation Foundation, priority 2007, dated 2013).

Tests used:
Assay type in all cases: cell-based, human
FaDu cells = assay: Proliferative assay of tumor cell; details: fifth day after the treatment, compared to the DMSO control
Experimental: In order to evaluate effects of selected aquatic microbial extracts having an anti-cancer effect, FaDu cells (1×10^5/well) treated with 0, 10 and 30 ng/ml of HGF were treated with an aquatic Bacillus sp. strain extract (concentration: 1, 10 and 100 μM), and then incubated for 5 days. Then, 1, 3 and 5-day growth of the FaDu cells were determined by measuring the cell number of the FaDu cells using a haemocytometer. In this case, a medium was replaced by fresh medium. This experiment was repeated five times to statistically analyze the cell number difference according to the amounts of HGF and the extract.

MMP-2 = assay: Expression level test of MMP using RT-PCR; details: for expression level of the MMP-2: 24 and 48 hours
Experimental: 1 ml of a cancer cell line was homogenated in a TRIzol (GIBCOBRL, Grand Island, N.Y., USA) reagent, and the total RNA was extracted from the cancer cell line. 2 μg of the total RNA extracted from the hypopharyngeal cancer cell line was put into reaction mixtures of an Omniscript Reverse Transcriptase kit (20511, Qiagen Germany) (including 2.0 μl of 10× Buffer RT, 2.0 μl of dNTP Mix (5 mM each dNTP), 2.0 μl of Oligo-dT primer (10 μM), 1.0 μl of a RNase inhibitor (10 units/μl), 2 units of Omniscript Reverse Transcriptase and 20 μl of RNase-free water), and reverse transcribed at 37° C. for 60 minutes and at 94° C. for 5 minutes to synthesize cDNA. PCR was carried out using Minicycler™ (MJ research, USA), and the synthesized cDNA was added together with 1 unit of Taq DNA polymerase (Roche Diagnostics Co, Indianapolis, USA) and each primer, and then amplified.
DNA sequences of MMP-2 primer and MMP-9 primer used in this experiment were listed as follows.
A PCR procedure was carried out in one initial denaturation cycle at 96° C. for 3 minutes, 30 amplification cycles at 96° C. for 30 seconds, at 55° C. for 30 seconds and at 72° C. for 30 seconds, and one extension cycle at 72° C. for 5 minutes.

MMP-9 = assay: MMP activity test using zymogram; details: 10 ng HGF-treated group compared to the control
Experimental: Proteins were quantitified from each of the supernatants, 30 μg of each supernatant was taken, and 15 μl APMA was added to each of the supernatants and activated at 37° C. for 1 hour. The activated test samples were added, and treated with MightySlim™ SX 250 (Hoefer, Calif., USA) for 2 4 hours and 48 hours. Then, the resulting test samples were ground to obtain cytoplasm samples. 10 μl of the cytoplasm samples were taken from these cytoplasm samples and added to sample buffers, respectively, and kept for 10 minutes. Then, the cytoplasm samples were added to previously-prepared gels, and then reacted at 4° C. and 125V for 120 minutes using Novex XCell II. The resulting cytoplasm samples were kept in a renaturing buffer at a room temperature for 60 minutes, and, after a developing buffer was replaced by 100 ml of fresh developing buffer, the cytoplasm samples were kept in the fresh developing buffer for 18 hours at 37° C. while stirring. Then, the cytoplasm samples were stained with Coomassie blue for 3 hours, washed with water, and observed at intervals of 10 minutes. In this case, a the gels were destained with a destaining solution (Methanol 400 ml, Acetic acid 100 ml, Distilled water 500 ml), and photographs of the gels were then taken using an image analyzer.

In the case of “HGF: hepatocyte growth factor used to stimulate cancer cells”, the “cell proliferation on stimulation with hepatocyte growth factor” value (FaDu cells) was “statistically significant cell proliferation”, the “expression level of the MMP-2” value (MMP-2; 10 ng/ml HGF, vs control) was “not significantly different” and the “expression level of the MMP-2” value (MMP-2; 30 ng/ml HGF) was “increased”. For the same substance, the “expression level between the control and the HGF-treated groups when MMP-2 was treated with the HGF” value (MMP-2; second statement, printed MMP-2) was “no distinct difference” and the “expression of the MMP-9 (MMP activity evaluation)” value (MMP-9) was “slightly increased”.
